Assay results reported in the NIST ThermoML archive (doi:10.1016/j.jct.2015.07.042).
± gives the expanded uncertainty stated by the source.

Assay: activity coefficient (dimensionless); of the first substance listed, at infinite dilution; xn = mol fraction of the nth substance listed
Conditions: 101 kPa, Liquid, Chromatography, x1 = 0

Compound | activity coefficient (358.15 K) | activity coefficient (368.15 K) | activity coefficient (378.15 K) | activity coefficient (388.15 K) | activity coefficient (398.15 K) | activity coefficient (408.15 K) | activity coefficient (418.15 K) | activity coefficient (428.15 K)
c1ccncc1 [pyridine] + CCCCn1cc[n+](C)c1.CS(=O)(=O)[O-] | 10.9 ± 0.75 | 10.8 ± 0.74 | 10.6 ± 0.72 | 10.5 ± 0.71 | – | – | – | –
CCO [ethanol] + CCCCn1cc[n+](C)c1.CS(=O)(=O)[O-] | – | – | – | – | 0.533 ± 0.039 | 0.553 ± 0.04 | 0.576 ± 0.041 | 0.599 ± 0.042
C=C(C)c1ccccc1 [(1-methylethenyl)benzene] + CCCCn1cc[n+](C)c1.COP(=O)([O-])OC | 4.57 ± 0.31 | 4.77 ± 0.33 | 4.98 ± 0.34 | 5.29 ± 0.36 | – | – | – | –
C=CCCCCCCCC [1-decene] + CCCCn1cc[n+](C)c1.COP(=O)([O-])OC | 53.5 ± 3.7 | 52.2 ± 3.6 | 50.4 ± 3.5 | 49.2 ± 3.4 | – | – | – | –
C=CCCCCC [1-heptene] + CCCCn1cc[n+](C)c1.[Cl-] | 88.9 ± 6.1 | 83.8 ± 5.7 | 79.3 ± 5.4 | 77.2 ± 5.3 | – | – | – | –
C1CCCCCCC1 [cyclooctane] + CCCCn1cc[n+](C)c1.[Cl-] | 79.5 ± 5.5 | 75.4 ± 5.2 | 71.1 ± 4.9 | 68.6 ± 4.7 | – | – | – | –
CC1CCCCC1 [methylcyclohexane] + CCCCn1cc[n+](C)c1.COP(=O)([O-])OC | 17.4 ± 1.2 | 16.8 ± 1.1 | 16.4 ± 1.1 | 16.1 ± 1.1 | – | – | – | –
c1ccccc1 [benzene] + CCCCn1cc[n+](C)c1.COP(=O)([O-])OC | 2.33 ± 0.16 | 2.41 ± 0.16 | 2.49 ± 0.17 | 2.63 ± 0.18 | – | – | – | –
CCOC(C)(C)C [2-ethoxy-2-methylpropane] + CCCCn1cc[n+](C)c1.CS(=O)(=O)[O-] | 35.3 ± 2.4 | 35.6 ± 2.4 | 36.1 ± 2.5 | 36.6 ± 2.5 | – | – | – | –
C1CCCCCC1 [cycloheptane] + CCCCn1cc[n+](C)c1.CS(=O)(=O)[O-] | 44.2 ± 3 | 43.3 ± 3 | 42.6 ± 2.9 | 42.2 ± 2.9 | – | – | – | –
O [water] + CCCCn1cc[n+](C)c1.[Cl-] | – | – | – | – | 0.07 ± 0.03 | 0.077 ± 0.03 | 0.085 ± 0.03 | 0.094 ± 0.03
CC(C)CO [2-methyl-1-propanol] + CCCCn1cc[n+](C)c1.COP(=O)([O-])OC | – | – | – | – | 0.23 ± 0.029 | 0.254 ± 0.03 | 0.281 ± 0.03 | 0.313 ± 0.031
CC(C)OC(C)C [diisopropyl ether] + CCCCn1cc[n+](C)c1.COP(=O)([O-])OC | 14.4 ± 0.98 | 14.3 ± 0.97 | 14.2 ± 0.97 | 14.1 ± 0.96 | – | – | – | –
CC(C)(C)O [2-methylpropan-2-ol] + CCCCn1cc[n+](C)c1.CS(=O)(=O)[O-] | – | – | – | – | 1.28 ± 0.083 | 1.39 ± 0.09 | 1.48 ± 0.098 | 1.59 ± 0.11
C1CCCCC1 [cyclohexane] + CCCCn1cc[n+](C)c1.CS(=O)(=O)[O-] | 35.2 ± 2.4 | 34.5 ± 2.4 | 33.9 ± 2.3 | 33.8 ± 2.3 | – | – | – | –
CCCOCCC [dipropyl ether] + CCCCn1cc[n+](C)c1.[Cl-] | 57.4 ± 3.9 | 55.3 ± 3.8 | 52.8 ± 3.6 | 51.9 ± 3.6 | – | – | – | –
CC(C)(C)O [2-methylpropan-2-ol] + CCCCn1cc[n+](C)c1.[Cl-] | – | – | – | – | 0.987 ± 0.062 | 1.07 ± 0.067 | 1.16 ± 0.074 | 1.27 ± 0.082
C=CCCCC [hex-1-ene] + CCCCn1cc[n+](C)c1.CS(=O)(=O)[O-] | 39.7 ± 2.7 | 40 ± 2.7 | 40 ± 2.7 | 40.3 ± 2.8 | – | – | – | –
C=COC(C)=O [vinyl acetate] + CCCCn1cc[n+](C)c1.CS(=O)(=O)[O-] | 3.47 ± 0.24 | 3.58 ± 0.24 | 3.76 ± 0.26 | 3.92 ± 0.27 | – | – | – | –
CCC[N+](=O)[O-] [1-nitropropane] + CCCCn1cc[n+](C)c1.COP(=O)([O-])OC | 1.5 ± 0.1 | 1.56 ± 0.1 | 1.62 ± 0.11 | 1.72 ± 0.12 | – | – | – | –
C1CCCCCCC1 [cyclooctane] + CCCCn1cc[n+](C)c1.CS(=O)(=O)[O-] | 57.1 ± 3.9 | 55.7 ± 3.8 | 54.4 ± 3.7 | 53.6 ± 3.7 | – | – | – | –
CC(C)O [propan-2-ol] + CCCCn1cc[n+](C)c1.[Cl-] | – | – | – | – | 0.542 ± 0.04 | 0.577 ± 0.041 | 0.619 ± 0.043 | 0.668 ± 0.045
CO [methanol] + CCCCn1cc[n+](C)c1.[Cl-] | – | – | – | – | 0.156 ± 0.029 | 0.166 ± 0.029 | 0.176 ± 0.029 | 0.191 ± 0.029
CC(C)CO [2-methyl-1-propanol] + CCCCn1cc[n+](C)c1.[Cl-] | – | – | – | – | 0.54 ± 0.039 | 0.576 ± 0.041 | 0.615 ± 0.043 | 0.665 ± 0.045

Compound | activity coefficient (358.15 K) | activity coefficient (368.15 K) | activity coefficient (378.15 K) | activity coefficient (388.15 K) | activity coefficient (398.15 K) | activity coefficient (408.15 K) | activity coefficient (418.15 K) | activity coefficient (428.15 K)
COC(C)=O [methyl ethanoate] + CCCCn1cc[n+](C)c1.COP(=O)([O-])OC | 2.58 ± 0.18 | 2.65 ± 0.18 | 2.73 ± 0.19 | 2.85 ± 0.19 | – | – | – | –
COC(C)=O [methyl ethanoate] + CCCCn1cc[n+](C)c1.CS(=O)(=O)[O-] | 2.94 ± 0.2 | 3.03 ± 0.21 | 3.14 ± 0.21 | 3.33 ± 0.23 | – | – | – | –
C#CCCCCCC [1-octyne] + CCCCn1cc[n+](C)c1.CS(=O)(=O)[O-] | 17.8 ± 1.2 | 18.6 ± 1.3 | 19.5 ± 1.3 | 20.4 ± 1.4 | – | – | – | –
CCCCCCCC [octane] + CCCCn1cc[n+](C)c1.[Cl-] | 331 ± 23 | 302 ± 21 | 268 ± 18 | 258 ± 18 | – | – | – | –
CO [methanol] + CCCCn1cc[n+](C)c1.CS(=O)(=O)[O-] | – | – | – | – | 0.325 ± 0.032 | 0.34 ± 0.032 | 0.357 ± 0.033 | 0.373 ± 0.033
CC1CCCCC1 [methylcyclohexane] + CCCCn1cc[n+](C)c1.CS(=O)(=O)[O-] | 52.8 ± 3.6 | 51.7 ± 3.5 | 50.9 ± 3.5 | 50.4 ± 3.5 | – | – | – | –
COC(C)(C)C [2-methoxy-2-methylpropane] + CCCCn1cc[n+](C)c1.[Cl-] | 24.6 ± 1.7 | 23.8 ± 1.6 | 23 ± 1.6 | 22.9 ± 1.6 | – | – | – | –
CCCCCCCC [octane] + CCCCn1cc[n+](C)c1.COP(=O)([O-])OC | 47.9 ± 3.3 | 46.2 ± 3.2 | 44.6 ± 3 | 43.4 ± 3 | – | – | – | –
C#CCCCC [1-hexyne] + CCCCn1cc[n+](C)c1.[Cl-] | 7.33 ± 0.5 | 7.85 ± 0.54 | 8.19 ± 0.56 | 8.61 ± 0.59 | – | – | – | –
CCOC(C)=O [ethyl acetate] + CCCCn1cc[n+](C)c1.CS(=O)(=O)[O-] | 4.76 ± 0.32 | 4.88 ± 0.33 | 5 ± 0.34 | 5.28 ± 0.36 | – | – | – | –
C=CCCCCCC [oct-1-ene] + CCCCn1cc[n+](C)c1.CS(=O)(=O)[O-] | 88.1 ± 6 | 86.8 ± 6 | 86.5 ± 5.9 | 85.6 ± 5.9 | – | – | – | –
CCC(C)O (stereo not drawn) [butan-2-ol] + CCCCn1cc[n+](C)c1.COP(=O)([O-])OC | – | – | – | – | 0.327 ± 0.032 | 0.365 ± 0.033 | 0.406 ± 0.034 | 0.451 ± 0.036
Cc1ccc(C)cc1 [1,4-dimethylbenzene] + CCCCn1cc[n+](C)c1.CS(=O)(=O)[O-] | 9.03 ± 0.62 | 9.2 ± 0.63 | 9.37 ± 0.64 | 9.71 ± 0.66 | – | – | – | –
Cc1ccccc1 [toluene] + CCCCn1cc[n+](C)c1.CS(=O)(=O)[O-] | 5.32 ± 0.36 | 5.45 ± 0.37 | 5.68 ± 0.39 | 5.84 ± 0.4 | – | – | – | –
C=Cc1ccccc1 [styrene] + CCCCn1cc[n+](C)c1.[Cl-] | 4.96 ± 0.34 | 5.18 ± 0.35 | 5.42 ± 0.37 | 5.73 ± 0.39 | – | – | – | –
CC(C)O [propan-2-ol] + CCCCn1cc[n+](C)c1.COP(=O)([O-])OC | – | – | – | – | 0.256 ± 0.03 | 0.282 ± 0.03 | 0.311 ± 0.031 | 0.344 ± 0.032
CCO [ethanol] + CCCCn1cc[n+](C)c1.COP(=O)([O-])OC | – | – | – | – | 0.16 ± 0.029 | 0.173 ± 0.029 | 0.189 ± 0.029 | 0.205 ± 0.029
C=C(C)c1ccccc1 [(1-methylethenyl)benzene] + CCCCn1cc[n+](C)c1.CS(=O)(=O)[O-] | 6.43 ± 0.44 | 6.71 ± 0.46 | 6.96 ± 0.47 | 7.41 ± 0.51 | – | – | – | –
CCOCC [diethyl ether] + CCCCn1cc[n+](C)c1.CS(=O)(=O)[O-] | 14.7 ± 1 | 14.9 ± 1 | 15 ± 1 | 15.3 ± 1.1 | – | – | – | –
CC(C)=O [acetone] + CCCCn1cc[n+](C)c1.[Cl-] | 3.05 ± 0.21 | 3.12 ± 0.21 | 3.17 ± 0.22 | 3.27 ± 0.22 | – | – | – | –
CCC(C)O (stereo not drawn) [butan-2-ol] + CCCCn1cc[n+](C)c1.[Cl-] | – | – | – | – | 0.749 ± 0.049 | 0.804 ± 0.052 | 0.865 ± 0.055 | 0.931 ± 0.059
C=COC(C)=O [vinyl acetate] + CCCCn1cc[n+](C)c1.COP(=O)([O-])OC | 2.79 ± 0.19 | 2.88 ± 0.2 | 2.99 ± 0.2 | 3.13 ± 0.21 | – | – | – | –
CCCCO [butan-1-ol] + CCCCn1cc[n+](C)c1.[Cl-] | – | – | – | – | 0.558 ± 0.04 | 0.594 ± 0.042 | 0.635 ± 0.044 | 0.68 ± 0.046
